How the values were obtained:
Assay type in all cases: cell-based
[1] = system: human non-small cell lung carcinoma A549 cells; experiment: Measurement of cytotoxic activity for human cancer cells (2), Sulforhodamine B, A549; settings: 72 hours; for IC50: Homo sapiens, read-out: IC50 value for cell growth, A549 cells
Method: (§1) Measurement of cytotoxic activity for human cancer cells (2)
(§2) Human colon cancer WiDr cells adjusted to a density of 6×10^4 cells/ml, human non-small cell lung carcinoma A549 cells adjusted to a density of 4×10^4 cells/ml or human prostate cancer DU-145 cells adjusted to a density of 6×10^4 cells/ml were dispensed into a 96 well test plate and cultured at 37° C. in a CO2 incubator. After 24 hours, varied concentration of the compound A, compound B or compound C was dispensed in 100 μl portions, and the cells were cultured at 37° C. for additional 72 hours in a CO2 incubator. After the culturing, the number of cells was determined using Sulforhodamine B, and the IC50 value of each compound for cell growth was calculated.

[2] = system: human prostate cancer DU-145 cells; experiment: Measurement of cytotoxic activity for human cancer cells (2), Sulforhodamine B, DU-145; settings: 72 hours
Method: as §1, §2

[3] = system: Human colon cancer WiDr cells; experiment: Measurement of cytotoxic activity for human cancer cells (2), Sulforhodamine B, WiDr; settings: 72 hours
Method: as §1, §2

HeLa S3 cells = experiment: Measurement of cytotoxic activity for human cancer cells (1), Cell Counting Kit; settings: 72 h, cultured 3 days, read-out: IC50 value, cytotoxic activity (growth inhibition) for HeLa S3 cells
Method: Measurement of cytotoxic activity for human cancer cells (1)
HeLa S3 cells adjusted to a density of 6×10^4 cells/ml were dispensed in 200 μl portions, and various concentrations of the compound A and compound B respectively in 4 μl portions, into a 96 well test plate, and cultured at 37° C. for 3 days in a CO2 incubator. After the culturing, the degree of cell growth was measured using Cell Counting Kit (mfd. by DOJINDO), and the growth inhibition ratio at each concentration was obtained to calculate the IC50 value.

[4] = system: PAI-1 promoter gene expression in mink lung epithelial cells (MvlLu); experiment: Measurement of TGF-β like activity, PAI-1 promoter luciferase reporter
Excerpt: Measurement of TGF-β like activity
In order to detect the TGF-β like activity, a screening system was constructed making use of the expression of a reporter gene. A fluorescent luciferase gene was transfected into downstream of the PAI-1 promoter gene of mink lung epithelial cells (MvlLu). in which expression of […] (PAI-1) is induced by TGF-β due to excess expression of TGF-β receptor (Journal of Biological Chemistxy, vol. 262, pp. 17467–17414, 1987), (Analytical Biochemistry, vol. 216, pp. 276–284, 1994).
Using the above cells, the luminous intensity obtained by adding each compound was used as the index of TGF-β like activity.

Compound | cell growth inhibition activity for A549 cells [1] | IC50 [1] [nM] | cell growth inhibition activity for DU-145 cells [2] | cell growth inhibition activity for WiDr cells [3] | IC50 (HeLa S3 cells) [nM] | luminous intensity induced by the expression of PAI-1 promoter gene [4]
CC(C)CC1NC(=O)C2CSSCC/C=C/C(CC(=O)NC(C)C(=O)N2)OC(=O)CC1O (stereo not drawn) [Compound C] | excellent cell growth inhibition activity | ≤ 5 | excellent cell growth inhibition activity | excellent cell growth inhibition activity | – | –
CC1NC(=O)CC2/C=C/CCSSCC(NC1=O)C(=O)NC(C(C)C)C(O)CC(=O)O2 (stereo not drawn) [Compound A] | excellent cell growth inhibition activity | ≤ 5 | excellent cell growth inhibition activity | excellent cell growth inhibition activity | 1600 | –
TGF-β | – | – | – | – | – | increased the luminous intensity
CCC(C)C1NC(=O)C2CSSCC/C=C/C(CC(=O)NC(C)C(=O)N2)OC(=O)CC1O (stereo not drawn) [Compound B] | excellent cell growth inhibition activity | ≤ 5 | excellent cell growth inhibition activity | excellent cell growth inhibition activity | 1200 | –

Source: US7098024B2, “Depsipeptide compound” (Astellas Pharma Inc., priority 1999, dated 2006)
